The source made the active and inactive calls. The rule behind the calls is not given here.

In one test the target is T1, Antrax lethal toxin (Bacillus anthracis) (UniProt P15917+P13423). As to the kind of experiment: Reversible inhibition of Bacillus anthracis lethal toxin-induced mouse RAW264.7 cell death at 25 uM preincubated for 1 hr followed by compound washout measured 4 hrs post lethal toxin challenge.
Conditions: not given
In kind it is protein-complex assay.
In the case of `Cc1cccc(C)c1NC(=O)N/N=C/c1c(F)c(F)c(N=[N+]=[N-])c(F)c1F`, the inhibition entry was “Active”.
Same read-out and setting: the result for `Cc1cccc(C)c1NC(=O)N/N=C/c1ccc(N=[N+]=[N-])cc1` reads “Active”.

The target of another test is T1, Antrax lethal toxin (Bacillus anthracis). As to the kind of experiment: Irreversible inhibition of Bacillus anthracis lethal toxin-induced mouse RAW264.7 cell death at 25 uM preincubated for 1 hr followed by UV irradiation measured after 5 mins. In kind it is protein-complex assay.
Conditions: not given
`Cc1cccc(C)c1NC(=O)N/N=C/c1c(F)c(F)c(N=[N+]=[N-])c(F)c1F`: the inhibition entry was “Active”.
Same read-out and setting: as for `Cc1cccc(C)c1NC(=O)N/N=C/c1ccc(N=[N+]=[N-])cc1`, the entry is “Active”.

The next test has the same target. In words: Reversible inhibition of Bacillus anthracis lethal toxin-induced mouse RAW264.7 cell death at 12.5 uM preincubated for 1 hr followed by compound washout measured 4 hrs post lethal toxin challenge. In kind it is protein-complex assay.
Conditions: not given
On to `Cc1cccc(C)c1NC(=O)N/N=C/c1ccc(N=[N+]=[N-])cc1F`, for which the inhibition entry is “Active”.

For a further test the target is unchanged. As to the kind of experiment: Irreversible inhibition of Bacillus anthracis lethal toxin-induced mouse RAW264.7 cell death at 12.5 uM preincubated for 1 hr followed by UV irradiation measured after 5 mins. In kind it is protein-complex assay.
Conditions: not given
With `Cc1cccc(C)c1NC(=O)N/N=C/c1ccc(N=[N+]=[N-])cc1F`, the inhibition result was “inactive”.

A further test shares this target. The settings on record: RAW264.7, at 25 µM.
Consider `Cc1cccc(C)c1NC(=O)N/N=C/c1ccccc1`, for which the inhibition entry is “inactive”.
Take `Cc1cccc(C)c1NC(=O)N/N=C/c1cccc(C(F)(F)F)c1Cl`: the inhibition result was “inactive”.
As for `Cc1ccccc1/C=N/NC(=O)Nc1c(C)cccc1C`, the inhibition result was “inactive”.
On the same count and under the same terms, as for `Cc1cccc(C)c1NC(=O)N/N=C/c1ccco1`, the entry is “inactive”.
Take `Cc1cccc(C)c1NC(=S)N/N=C/c1c(F)cc(Br)cc1F`: the inhibition entry was “inactive”.
Still for that read-out and setting: the result for `Cc1cccc(C)c1NC(=O)NN` reads “inactive”; that for `O=C(N/N=C/c1ccc(Cl)cc1)Nc1ccccc1`, “inactive”; that for `COc1cccc(/C=N/NC(=O)Nc2c(C)cccc2C)c1OC`, “inactive”.
Still for that read-out and setting: the result for `Cc1cccc(C)c1NC(=S)N/N=C/c1ccc(Br)cc1F` reads “inactive”.
On the same count and under the same terms, the result for `Cc1ccc(NC(=O)N/N=C/c2ccc(Br)cc2)c(C)c1` reads “inactive”; that for `CC(C)(C)NC(=O)N/N=C/c1ccc(Br)cc1`, “inactive”.
As to `COc1cc(OC)c(/C=N/NC(=O)Nc2c(C)cccc2C)c(OC)c1`, the inhibition entry was “inactive”.
Still for that read-out and setting: the result for `C#CCN(/N=C/c1ccc(N=[N+]=[N-])cc1)C(=O)Nc1c(C)cccc1C` reads “inactive”.
In the case of `Cc1cccc(C)c1NC(=O)N/N=C/c1ccncc1`, the inhibition entry is “inactive”.
Same read-out and setting: the result for `Cc1cccc(C)c1NC(=O)N/N=C/c1ccc(NS(C)(=O)=O)cc1` reads “inactive”.

The values are drawn from ChEMBL document CHEMBL3259674, “Structure-Activity Relationship of Semicarbazone EGA Furnishes Photoaffinity Inhibitors of Anthrax Toxin Cellular Entry” (ACS Med Chem Lett, 2014).
